The subject of one assay is IMR-90 fibroblasts. As to the kind of experiment: Selective killing of senescent versus quiescent IMR-90 fibroblasts by SRE-BP activation inhibitors. It is filed as cell-based. Particulars: 30 μM. Here is the method:
FIGS. 1A and 1B. SRE-BP activation inhibitors selectively kill senescent cells. IMR-90 fibroblasts were induced to senesce with either 10 Gy of ionizing radiation (IR), 250 nM doxorubicin [SEN(DOXO)], or quiescent vehicle control (QUI) for 24 hours. Media was then replaced with drug-free growth media, and senescence was allowed to develop for 12 days. On day 12, growth media (10% serum) was replaced with quiescence media (0.2% serum+ITS supplement) for 48 hours to induce quiescence in non-senescent cells. On day 14, media was replaced with quiescence media containing increasing doses of fatostatin (A), xanthohumol (B), PF-429242 (C), or 30 micromolar betulin (D). DMSO served as a 0 micromolar vehicle control. \<0.001

In assay [1] the test system is senescent cells in the liver. Put plainly: Markers of senescence and SASP factors in liver of high fat diet mice by qRT-PCR. The assay is classed as in vivo. Here is the method:
FIGS. 2A, 2B, 2C, and 2D. […] Mice were fed a high fat diet (HFD) or high fat diet with 60 mg/kg xanthohumol (HFD+XN) for 12 weeks. RNA was extracted from mice and analyzed by quantitative PCR for (A) p21^WAF1, (B) p16^INK4a, (C) p15^INK4b, and (D) SASP factors.
Prolonged high fat diet (HFD) induces the generation of senescent cells in the liver. To test the hypothesis that inhibitors of SRE-BP activation are senolytic, two groups of mice were fed a HFD for 12 weeks. A control group was fed a HFD alone (FIG. 2, HFD), and an experimental group (FIG. 2, HFD+XN) was fed a HFD and the SRE-BP activation inhibitor xanthohumol (XN). RNA was isolated from liver samples from each group and subjected to quantitative reverse transcriptase polymerase chain reaction (qRT-PCR). […] Accordingly, the data presented in FIG. 2D supports the hypothesis that SRE-BP activation inhibitors, e.g., xanthohumol, are senolytic.

Setting [2] is: SASP factor, mice, HFD + 60 mg/kg xanthohumol for 12 weeks vs HFD alone, liver RNA, qRT-PCR.
Setting [3] is: mice, HFD + 60 mg/kg xanthohumol for 12 weeks vs HFD alone, liver RNA, qRT-PCR.

For the molecule `C=C(C)[C@@H]1CC[C@]2(CO)CC[C@]3(C)[C@H](CC[C@@H]4[C@@]5(C)CC[C@H](O)C(C)(C)[C@@H]5CC[C@]43C)[C@@H]12` [betulin], the “toxicity to senescent cells versus quiescent cells” value in the assay on IMR-90 fibroblasts is “significantly more toxic to senescent cells than quiescent cells”.

Turning to `COc1cc(O)c(CC=C(C)C)c(O)c1C(=O)/C=C/c1ccc(O)cc1` [xanthohumol], in assay [1] (setting [2]), the “expression of 2′, 5′ oligoadenylate synthetase 2 (Oas2)” value is listed as “reduced expression”; the “expression of C-C motif chemokine 2 (Ccl2)” value is “reduced expression”; the “expression of arachidonate 5-lipoxygenase (Alox5)” value is listed as “reduced expression”; the “expression of growth differentiation factor 15 (Gdf15)” value is “reduced expression”. Moreover, in assay [1] (setting [2]), the “expression of interleukin 6 (IL-6)” value is on record as “reduced expression”; the “expression of matrix metalloproteinase 3 (MMP3)” value is “reduced expression”; the “expression of plasminogen activator, urokinase (Plau)” value was “reduced expression”; the “expression of prostaglandin-endoperoxide synthase 2 (Ptgs2)” value is reported as “reduced expression”. The “expression of serpin family E member 1 (Serpine1), encoding plasminogen activator inhibitor 1 (PAI-1)” value in assay [1] (setting [2]) was “reduced expression”. Also, in assay [1] (setting [3]), the “expression of marker of senescence p15^INK4b” value is given as “reduced expression”, the “expression of marker of senescence p16^INK4a” value is “reduced expression” and the “expression of marker of senescence p21^WAF1” value is listed as “reduced expression”. The “several genes characteristic of SASP in mouse livers” value in assay [1] (summary statement, after administration of xanthohumol, qRT-PCR) is on record as “reduced”. Further, the “markers of senescence in vivo” value in assay [1] (summary statement, mice, HFD + 60 mg/kg xanthohumol for 12 weeks vs HFD) is given as “lowers markers of senescence”.

The values above are taken from patent US20250049773A1, “INHIBITION OF STEROL RESPONSE ELEMENT BINDING PROTEINS AS ATARGET FOR SELECTIVE ELIMINATION OF SENESCENT CELLS” (Trustees of Tufts College, priority 2021, published 2025).
